Where a name gives a salt, the structure may show the parent alone. Read-outs that look alike come from different tables or passages of the source.
Assays:
[1] = system: eyes of patients suffering from severe night vision difficulty; assay: Example 1 clinical study: mesopic contrast sensitivity with glare, Holladay Automated Contrast Sensitivity System; type: in vivo, humans; conditions: for percentage of eyes with at least a 50% improvement in contrast sensitivity relative to baseline: 0.5% or 1.0% (w/v) once daily, beginning with day 8
Description: Sixty patients with normal day vision (i.e., 20/40 or better) but which suffer from severe night vision difficulty were enrolled in the study. During the first period of the study, patients were randomized into three groups. The groups received either placebo, 0.5% (w/v) phentolamine mesylate, or 1.0% (w/v) phentolamine mesylate once daily for 15 days. The patients were observed on days 1, 4, 8, and 15 prior to administering the ophthalmic solution of phentolamine mesylate and then observed again two hours after the ophthalmic solution of phentolamine mesylate was administered. During the second period of the study, all sixty patients were instructed to administer an ophthalmic solution of phentolamine mesylate (1% (w/v)) as needed, but no more than once daily to each eye. The ophthalmic solution of phentolamine mesylate contained: 1% (w/v) phentolamine mesylate, 4% (w/v) mannitol, 3 mM sodium acetate, and water. The placebo was a solution containing 4% (w/v) mannitol, 3 mM sodium acetate, and water.
Patients in the study satisfied the following criteria: (1) 18-45 years of age and suffer from severe night vision difficulty, (2) 0.3 log improvement at two of five spatial frequencies (1.5, 3, 6, 12, and 18 cycles per degree) in at least one eye before and during illumination of the contralateral eye, using the Holladay Automated Contrast Sensitivity System test under mesopic room illumination with glare, and (3) photopic distance high-contrast visual acuity (corrected or uncorrected) of 20/40 or better in at least one eye.
Patients were to meet with a clinician for evaluation on study days 1, 4, 8, 15, and a post-dosing follow-up evaluation three or more days after administering the last dose in the second period. When patients met with the clinician, the following observations were made by the clinician: (1) mesopic contrast sensitivity with and without glare using the Holladay Automated Contrast Sensitivity System test, (2) mesopic distance high-contrast visual acuity using E-ETDRS Acuity Testing, (3) mesopic distance low-contrast visual acuity using E-ETDRS Acuity Testing, (4) photopic distance high-contrast visual acuity using E-ETDRS Acuity Testing, and (5) eye redness using the Cornea and Contact Lens Research Unit (CCLRU) Redness Grading Scale developed by the School of Optometry, University of New South Wales, but that the grading scale was as follows: (0) none, (0.5) very slight, (1) slight, (2) moderate, and (3) severe.
The primary efficacy endpoint is an increase of at least 0.3 log (50% or more improvement) in mesopic contrast sensitivity with glare at two or more frequencies at 1.5, 3, 6, 12, and 18 cycles per degree, measured with Holladay Automated Contrast Sensitivity System methodology.

[2] = system: eyes of patients with pupil size in dim light of greater than 7 mm; parameters: species or system humans; conditions: human, in vivo
Experimental: Sixteen patients were randomized into four groups (of four subjects each). Each group was treated on three successive study visits separated by at least 4 days with one drop of ophthalmic oxymetazoline solution (Visine LR®) in each eye followed by one drop test article in each eye. The test article was a 0.2% (w/v) phentolamine mesylate solution, 0.4% (w/v) phentolamine mesylate solution, 0.8% (w/v) phentolamine mesylate solution, or placebo. Test articles contained the designed amount of phentolamine mesylate in a solution of Tears Naturale II® (from Alcon Labs). Placebo was just Tears Naturale II® (from Alcon Labs). Tears Naturale II® (from Alcon Labs) contains Dextran 70 (0.1% by weight), Hydroxypropyl Methylcellulose 2910 (0.3% by weight), Polyquarternium-1 (0.001% by weight), potassium chloride, water (purified), sodium borate, sodium chloride, and hydrochloric acid and/or sodium hydroxide as necessary to adjust the pH. The patients' eye redness and pupil diameters were recorded at baseline (i.e., prior to treatment administration), and at 30 minutes, 1 hour, 2 hours, 4 hours, and 8 hours after administration of test articles. The incidence of any treatment-emergent adverse events was also recorded. Total study duration was approximately nine hours.
Eye redness of patients' eyes was evaluated by the research assistant and recorded as a single integer of value 0 (no redness) to 4 (extreme redness) at baseline and each time point after treatment. Pupil diameters were measured to within 0.1 mm for each eye at baseline and each subsequent time point using a NeurOptics™ pupilometer. Monocular high contrast visual acuity was measured for each eye under photopic conditions at baseline and each subsequent time point in a darkened room using a Precision Vision™ High Contrast (100% tint) Visual Acuity Chart (Catalog #2102) backlit by the Precision Vision Illumination Box. Monocular low contrast visual acuity was measured for each eye under photopic conditions at baseline and each subsequent time point in a darkened room using a Precision Vision™ Low Contrast (5% tint) Visual Acuity Chart (Catalog #2186) backlit by the Precision Vision Illumination Box. Effect of treatment on glare was assessed using an experimental test method consisting of a panel with a high wattage central light emitting diode (LED) and a set of 7 lower wattage red LEDs radiating horizontally and vertically from the central light.
Comparisons of changes in mean values within treatment groups were tested for significance using two-tailed paired two sample t-tests with a threshold for significance set at p<0.01 (Bonferroni Correction for multiple paired t-tests). […] Differences in mean eye redness between treatment groups were evaluated using Kruskal-Wallis nonparametric testing. […]

## Cc1ccc(N(CC2=NCCN2)c2cccc(O)c2)cc1 [Phentolamine Mesylate, phentolamine mesylate]
[1]; tested prior to that day's dose (FIG. 2)
  percentage of eyes with at least a 50% improvement in contrast sensitivity relative to baseline: greater than 20%
[1]; tested two hours after that day's dose (FIG. 1)
  percentage of eyes with at least a 50% improvement in contrast sensitivity relative to baseline: greater than 20%
[1]; from percentage of eyes with at least 50% improvement in contrast sensitivity after the last dose, second period, 1% (w/v) (FIG. 4A)
  pharmacokinetic half-life: approximately two
[1]; measured prior to that day's administration, from day 15 to day 32 (FIG. 3)
  percentage of eyes with at least a 50% improvement in contrast sensitivity, change over time: increased
[1]; once daily during the 15-day study period (FIGS. 1 and 2)
  efficacy with repeated dosing (contrast sensitivity): no diminution in efficacy was observed
[2]
  Range of eye redness scores: 0-1
  eye redness: modest increase in eye redness
  mean eye redness versus placebo: did not differ from placebo
[2]; 30 min
  Range of eye redness scores: 0-1
